System: pseudovirus of SARS-CoV-2 original strain (SARS-CoV-2 WT)
Settings: for IC50: read-out: IC50, inhibitory effect on pseudovirus, Hela hACE2 cells

CC[C@H](C)[C@H](N)C(=O)N[C@@H](CO)C(=O)NCC(=O)N[C@H](C(=O)N[C@@H](CC(N)=O)C(=O)N[C@@H](C)C(=O)N[C@@H](CO)C(=O)N[C@H](C(=O)N[C@H](C(=O)N[C@@H](CC(N)=O)C(=O)N[C@H](C(=O)N[C@@H](CCCCN)C(=O)N[C@@H](CCC(=O)O)C(=O)N[C@@H](CCC(=O)O)C(=O)N[C@H](C(=O)N[C@@H](CC(=O)O)C(=O)N[C@@H](CCCNC(=N)N)C(=O)N[C@@H](CC(C)C)C(=O)N[C@@H](CC(N)=O)C(=O)N[C@@H](CCC(=O)O)C(=O)N[C@H](C(=O)N[C@@H](C)C(=O)N[C@@H](CCCCN)C(=O)N[C@@H](CC(N)=O)C(=O)N[C@@H](CC(C)C)C(=O)N[C@@H](CC(N)=O)C(=O)N[C@@H](CCC(=O)O)C(=O)N[C@@H](CO)C(=O)N[C@@H](CC(C)C)C(=O)N[C@H](C(=O)N[C@@H](CC(=O)O)C(=O)N[C@@H](CC(C)C)C(=O)N[C@@H](CCC(N)=O)C(=O)N[C@@H](CCC(=O)O)C(=O)N[C@@H](CC(C)C)C(=O)O)[C@@H](C)CC)C(C)C)[C@@H](C)CC)[C@@H](C)CC)C(C)C)C(C)C)[C@@H](C)CC [Polypeptide P3-4]
Increase multiple (fold increase in the inhibitory effect compared to the polypeptide P3): 3.3
IC50: 240 nM

CC[C@H](C)[C@H](NC(=O)CNC(=O)[C@H](CO)NC(=O)[C@@H](NC(=O)[C@H](CC(=O)O)NC(=O)CNC(=O)[C@H](Cc1ccccc1)NC(=O)[C@H](CCCCN)NC(=O)[C@@H](N)C(C)C)[C@@H](C)CC)C(=O)N[C@@H](CC(N)=O)C(=O)N[C@@H](C)C(=O)N[C@@H](CO)C(=O)N[C@H](C(=O)N[C@H](C(=O)N[C@@H](CC(N)=O)C(=O)N[C@H](C(=O)N[C@@H](CCCCN)C(=O)N[C@@H](CCC(=O)O)C(=O)N[C@@H](CCC(=O)O)C(=O)N[C@H](C(=O)N[C@@H](CC(=O)O)C(=O)N[C@@H](CCCNC(=N)N)C(=O)N[C@@H](CC(C)C)C(=O)N[C@@H](Cc1ccc(O)cc1)C(=O)N[C@@H](CCC(=O)O)C(=O)N[C@H](C(=O)N[C@H](C(=O)N[C@@H](CCCCN)C(=O)N[C@@H](CC(N)=O)C(=O)N[C@@H](CC(C)C)C(=O)N[C@@H](CC(N)=O)C(=O)N[C@@H](CCC(=O)O)C(=O)N[C@@H](CO)C(=O)N[C@@H](CC(C)C)C(=O)N[C@H](C(=O)N[C@@H](CC(=O)O)C(=O)N[C@@H](CC(C)C)C(=O)N[C@@H](CCC(N)=O)C(=O)N[C@@H](CCC(=O)O)C(=O)N[C@@H](CC(C)C)C(=O)O)[C@@H](C)CC)C(C)C)C(C)C)[C@@H](C)CC)[C@@H](C)CC)C(C)C)C(C)C [Polypeptide P3-3]
Increase multiple (fold increase in the inhibitory effect compared to the polypeptide P3): 3.4
IC50: 230 nM

CC[C@H](C)[C@H](N)C(=O)N[C@@H](CO)C(=O)NCC(=O)N[C@H](C(=O)N[C@@H](CC(N)=O)C(=O)N[C@@H](C)C(=O)N[C@@H](CO)C(=O)N[C@H](C(=O)N[C@H](C(=O)N[C@@H](CC(N)=O)C(=O)N[C@H](C(=O)N[C@@H](CCC(N)=O)C(=O)N[C@@H](CCCCN)C(=O)N[C@@H](CCC(=O)O)C(=O)N[C@H](C(=O)N[C@@H](CC(=O)O)C(=O)N[C@@H](CCCNC(=N)N)C(=O)N[C@@H](CC(C)C)C(=O)N[C@@H](CC(N)=O)C(=O)N[C@@H](CCC(=O)O)C(=O)N[C@H](C(=O)N[C@@H](C)C(=O)N[C@@H](CCCCN)C(=O)N[C@@H](CCC(=O)O)C(=O)N[C@@H](CC(C)C)C(=O)N[C@@H](CC(N)=O)C(=O)N[C@@H](CCC(=O)O)C(=O)N[C@@H](CO)C(=O)N[C@@H](CC(C)C)C(=O)N[C@H](C(=O)N[C@@H](CC(=O)O)C(=O)N[C@@H](CC(C)C)C(=O)N[C@@H](CCC(N)=O)C(=O)N[C@@H](CCC(=O)O)C(=O)N[C@@H](CC(C)C)C(=O)O)[C@@H](C)CC)C(C)C)[C@@H](C)CC)[C@@H](C)CC)C(C)C)C(C)C)[C@@H](C)CC [Polypeptide P3-5]
Increase multiple (fold increase in the inhibitory effect compared to the polypeptide P3): 0.5
IC50: 1590 nM

— US20240228547A1, “POLYPEPTIDE FOR RESISTING NOVEL CORONAVIRUS AND APPLICATION THEREOF” (INSTITUTE OF MICROBIOLOGY, CHINESE ACADEMY OF SCIENCES, priority 2021, published 2024)
